Experimental data from patent US11066445B2, “Immunomodulators acting as antagonists of PD-1” (Bristol-Myers Squibb Company, priority 2017, dated 2021).
Starred links: 1 amine or outer side, 2 acyl side, 3 side chain; linkers in the order of their positions; H or OH if unused. Positions of bridges follow the written chain, without caps; N, C: chain ends. Non-standard residues stand in square brackets, D forms with d. Residues, ends and D or L forms follow the SMILES beside them. *: point of attachment. X3 = O=C(O)CCCCCCCCCCCCCCCCC(=O)N[C@@H](CCC(=O)NCCCOCCOCCOCCCN*)C(=O)O; Trp(1-CH2CONHSO2Me) = CS(=O)(=O)NC(=O)Cn1cc(C[C@H](N)C(=O)O)c2ccccc21; X1 = O=C(O)CCCCCCCCCCCCCCC(=O)N[C@@H](CCC(=O)NCCCOCCOCCOCCCN*)C(=O)O; Trp(4-aza,1-CH2COOH) = N[C@@H](Cc1cn(CC(=O)O)c2cccnc12)C(=O)O; Trp(1-CH2CO2Me) = COC(=O)Cn1cc(C[C@H](N)C(=O)O)c2ccccc21; X2 = O=C(O)Cn1cc(C[C@@H](N[*:1])C(=O)[*:2])c2cccnc21; X4 = O=C(O)Cn1nc(C[C@H](N[*:1])C(=O)[*:2])c2ccccc21; d(cisHyp) = O=C(O)[C@H]1C[C@@H](O)CN1; Hyp = O=C(O)[C@@H]1C[C@@H](O)CN1; NMeNle = CCCC[C@H](NC)C(=O)O; NMeA = CN[C@@H](C)C(=O)O; Dab = NCC[C@H](N)C(=O)O; Dap = NC[C@H](N)C(=O)O; Sar = CNCC(=O)O

biological target: T1, PD-1-Ig binding to PD-L1-TVMV-His (PD-L1-His) (Homo sapiens, UniProt Q9NZQ7); experiment: PD-1/PD-L1 Homogenous Time-Resolved Fluorescence (HTRF) binding assay; details: PD-1-Ig (20 nM) / PD-L1-His (10 nM); numeric values; read-out: LE HTRF hPD1 hPDL1 IC50
T1 construct: hPDL1(19-239)-TVMV-His; TVMV protease cleavage site (C); made in house; host or cells: HEK293T cells
T1 sequence (Q9NZQ7 with tags, fused parts or gaps): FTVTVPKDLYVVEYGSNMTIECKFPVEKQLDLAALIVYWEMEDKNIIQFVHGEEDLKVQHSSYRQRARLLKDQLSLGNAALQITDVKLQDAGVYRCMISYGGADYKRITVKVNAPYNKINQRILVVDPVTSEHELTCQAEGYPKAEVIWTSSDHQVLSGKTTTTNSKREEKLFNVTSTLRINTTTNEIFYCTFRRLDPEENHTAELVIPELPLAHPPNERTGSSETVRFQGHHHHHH
Description: Methods for Testing the Ability of Macrocyclic Peptides to Compete for the Binding of Pd-1 to Pd-L1 Using Homogenous Time-Resolved Fluorescence (HTRF) Binding Assays
The ability of the macrocyclic peptides of the present disclosure to bind to PD-L1 was investigated using a PD-1/PD-L1 Homogenous Time-Resolved Fluorescence (HTRF) binding assay.
Homogenous Time-Resolved Fluorescence (HTRF) Assays of Binding of Soluble PD-1 to Soluble PD-L1. Soluble PD-1 and soluble PD-L1 refers to proteins with carboxyl-end truncations that remove the transmembrane-spanning regions and are fused to heterologous sequences, specifically the Fc portion of the human immunoglobuling G sequence (Ig) or the hexahistidine epitope tag (His). All binding studies were performed in an HTRF assay buffer consisting of dPBS supplemented with 0.1% (w/v) bovine serum albumin and 0.05% (v/v) Tween-20. For the PD-1-Ig/PD-L1-His binding assay, inhibitors were pre-incubated with PD-L1-His (10 nM final) for 15 m in 4 μl of assay buffer, followed by addition of PD-1-Ig (20 nM final) in 1 μl of assay buffer and further incubation for 15 m. PD-L1 fusion proteins from either human, cynomologous macaques, mouse, or other species were used. HTRF detection was achieved using europium crypate-labeled anti-Ig monoclonal antibody (1 nM final) and allophycocyanin (APC) labeled anti-His monoclonal antibody (20 nM final). Antibodies were diluted in HTRF detection buffer and 5 μl was dispensed on top of binding reaction. The reaction was allowed to equilibrate for 30 minutes and signal (665 nm/620 nm ratio) was obtained using an EnVision fluorometer. Additional binding assays were established between PD-1-Ig/PD-L2-His (20 and 5 nM, respectively), CD80-His/PD-L1-Ig (100 and 10 nM, respectively) and CD80-His/CTLA4-Ig (10 and 5 nM, respectively). Binding/competition studies between biotinylated Compound No. 71 and human PD-L1-His were performed as follows. Macrocyclic peptide inhibitors were pre-incubated with PD-L1-His (10 nM final) for 60 minutes in 4 μl of assay buffer followed by addition of biotinylated Compound No. 71 (0.5 nM final) in 1 μl of assay buffer. Binding was allowed to equilibrate for 30 minutes followed by addition of europium crypated labeled Streptavidin (2.5 pM final) and APC-labeled anti-His (20 nM final) in 5 μl of HTRF buffer. The reaction was allowed to equilibrate for 30 m and signal (665 nm/620 nm ratio) was obtained using an EnVision fluorometer.
Recombinant Proteins. Carboxyl-truncated human PD-1 (amino acids 25-167) with a C-terminal human Ig epitope tag [hPD-1 (25-167)-3S-IG] and human PD-L1 (amino acids 18-239) with a C-terminal His epitope tag [hPD-L1(19-239)-tobacco vein mottling virus protease cleavage site (TVMV)-His] were expressed in HEK293T cells and purified sequentially by recombinant Protein A affinity chromatography and size exclusion chromatography. Human PD-L2-His (Sino Biologicals), CD80-His (Sino Biologicals), CTLA4-Ig (RnD Systems) were all obtained through commercial sources.
Ranges are as follows: A=0.010-0.060 μM; B=0.0011-0.009 μM; C=0.0003-0.0010 μM.

| Compound | IC50 |
| --- | --- |
| CCCC[C@H]1C(=O)N(C)[C@@H](CCCC)C(=O)N[C@@H](CC(C)C)C(=O)N[C@H](C(=O)N[C@@H](Cc2cn(CCOCCOCCOCCOCCOCCOCCOCCOCCOCCOCCOCCNC(=O)CC[C@H](NC(=O)CCCCCCCCCCCCCCCCC(=O)O)C(=O)O)nn2)C(=O)O)CSCC(=O)N[C@@H](Cc2ccc(O)cc2)C(=O)N(C)[C@@H](C)C(=O)N[C@@H](CC(N)=O)C(=O)N2CCC[C@H]2C(=O)N[C@@H](CN)C(=O)N[C@@H](CC(C)C)C(=O)N2C[C@H](O)C[C@H]2C(=O)N[C@@H](Cc2c[nH]c3ccccc23)C(=O)N[C@@H](CCN)C(=O)N[C@@H](Cc2nn(CC(=O)O)c3ccccc23)C(=O)N1C [Example 22] | 0.6 nM |

same assay, conditions: PD-1-Ig (20 nM) / PD-L1-His (10 nM); range classes; read-out: LE HTRF hPD1 hPDL1 IC50

| Compound | IC50 |
| --- | --- |
| CCCC[C@H]1C(=O)N(C)[C@@H](CCCC)C(=O)N[C@@H](CC(C)C)C(=O)N[C@H](C(=O)NCC(=O)N[C@@H](CC(=O)NCCCOCCOCCOCCCNC(=O)CC[C@H](NC(=O)CCCCCCCCCCCCCCC(=O)O)C(=O)O)C(=O)O)CSCC(=O)N[C@@H](Cc2ccc(O)cc2)C(=O)N(C)[C@@H](C)C(=O)N[C@@H](CC(N)=O)C(=O)N2CCC[C@H]2C(=O)N[C@@H](CN)C(=O)N[C@@H](CC(C)C)C(=O)N2C[C@H](O)C[C@H]2C(=O)N[C@@H](Cc2c[nH]c3ccccc23)C(=O)N[C@@H](CCN)C(=O)N[C@@H](Cc2cn(CC(=O)O)c3cccnc23)C(=O)N1C [Example 18] ({CH2CO}-Y[NMeA]NP[Dap]L[Hyp]W[Dab][Trp(4-aza,1-CH2COOH)][NMeNle][NMeNle]LCGD(X1)-OH; thioether N-14) | 10 to 60 nM |
| CCCC[C@H]1C(=O)N(C)[C@@H](CCCC)C(=O)N[C@@H](CC(C)C)C(=O)N[C@H](C(=O)NCC(=O)N[C@@H](CC(=O)NCCCOCCOCCOCCCNC(=O)CC[C@H](NC(=O)CCCCCCCCCCCCCCC(=O)O)C(=O)O)C(=O)O)CSCC(=O)N[C@@H](Cc2ccc(O)cc2)C(=O)N(C)[C@@H](C)C(=O)N[C@@H](CC(N)=O)C(=O)N2CCC[C@H]2C(=O)N[C@@H](CN)C(=O)N[C@@H](CC(C)C)C(=O)N2C[C@H](O)C[C@H]2C(=O)N[C@@H](Cc2c[nH]c3ccccc23)C(=O)N[C@@H](CCN)C(=O)N[C@H](Cc2cn(CC(=O)O)c3ncccc23)C(=O)N1C [Example 20] ({CH2CO}-Y[NMeA]NP[Dap]L[Hyp]W[Dab][X2][NMeNle][NMeNle]LCGD(X1)-OH; thioether N-14) | 10 to 60 nM |
| CCCC[C@H]1C(=O)N(C)[C@@H](CCCC)C(=O)N[C@@H](CC(C)C)C(=O)N[C@H](C(=O)N[C@@H](Cc2cn(CCOCCOCCOCCOCCOCCOCCOCCOCCOCCOCCOCCNC(=O)CC[C@H](NC(=O)CCCCCCCCCCCCCCCCC(=O)O)C(=O)O)nn2)C(=O)O)CSCC(=O)N[C@@H](Cc2ccc(O)cc2)C(=O)N(C)[C@@H](C)C(=O)N[C@@H](CC(N)=O)C(=O)N2CCC[C@H]2C(=O)N[C@@H](CN)C(=O)N[C@@H](CC(C)C)C(=O)N2C[C@H](O)C[C@H]2C(=O)N[C@@H](Cc2c[nH]c3ccccc23)C(=O)N[C@@H](CCN)C(=O)NC(Cc2cn(CC(=O)O)c3ncccc23)C(=O)N1C (stereo partly shown) [Example 25] | 10 to 60 nM |
| CCCC[C@H]1C(=O)N(C)[C@@H](CCCC)C(=O)N[C@@H](CC(C)C)C(=O)N[C@H](C(=O)NCC(=O)N[C@@H](CC(=O)NCCCOCCOCCOCCCNC(=O)CC[C@H](NC(=O)CCCCCCCCCCCCCCCCC(=O)O)C(=O)O)C(=O)O)CSCC(=O)N[C@@H](Cc2ccc(O)cc2)C(=O)N(C)[C@@H](C)C(=O)N[C@@H](CC(N)=O)C(=O)N2CCC[C@H]2C(=O)N[C@@H](CN)C(=O)N[C@@H](CC(C)C)C(=O)N2C[C@H](O)C[C@H]2C(=O)N[C@@H](Cc2c[nH]c3ccccc23)C(=O)N[C@@H](CCN)C(=O)N[C@@H](Cc2nn(CC(=O)O)c3ccccc23)C(=O)N1C [Example 5] ({CH2CO}-Y[NMeA]NP[Dap]L[Hyp]W[Dab][X4][NMeNle][NMeNle]LCGD(X3)-OH; thioether N-14) | 1.1 to 9 nM |
| CCCC[C@H]1C(=O)N(C)[C@@H](CCCC)C(=O)N[C@@H](CC(C)C)C(=O)N[C@H](C(=O)N[C@@H](Cc2cn(CCOCCOCCOCCOCCOCCOCCOCCOCCOCCOCCOCCNC(=O)CC[C@H](NC(=O)CCCCCCCCCCCCCCCCC(=O)O)C(=O)O)nn2)C(=O)O)CSCC(=O)N[C@@H](Cc2ccc(O)cc2)C(=O)N(C)[C@@H](C)C(=O)N[C@@H](CC(N)=O)C(=O)N2CCC[C@H]2C(=O)N[C@@H](CN)C(=O)N[C@@H](CC(C)C)C(=O)N2C[C@H](O)C[C@H]2C(=O)N[C@@H](Cc2c[nH]c3ccccc23)C(=O)N[C@@H](CCN)C(=O)N[C@@H](Cc2cn(CC(=O)O)c3cccnc23)C(=O)N1C [Example 26] | 1.1 to 9 nM |

Other lines, results leading:

| IC50 | Compound |
| --- | --- |
| 1.1 to 9 nM | CCCC[C@H]1C(=O)N(C)[C@@H](CCCC)C(=O)N[C@@H](CC(C)C)C(=O)N[C@H](C(=O)NCC(=O)NCCCOCCOCCOCCCNC(=O)CC[C@H](NC(=O)CCCCCCCCCCCCCCCCC(=O)O)C(=O)O)CSCC(=O)N[C@@H](Cc2ccc(O)cc2)C(=O)N(C)[C@@H](C)C(=O)N[C@@H](CC(N)=O)C(=O)N(C)CC(=O)N[C@@H](CN)C(=O)N[C@@H](CC(C)C)C(=O)N2C[C@H](O)C[C@H]2C(=O)N[C@@H](Cc2c[nH]c3ccccc23)C(=O)N[C@@H](CCN)C(=O)N[C@@H](Cc2cn(CC(=O)NS(C)(=O)=O)c3ccccc23)C(=O)N1C [Example 4] ({CH2CO}-Y[NMeA]N[Sar][Dap]L[Hyp]W[Dab][Trp(1-CH2CONHSO2Me)][NMeNle][NMeNle]LCG-X3; thioether N-14) |
| 1.1 to 9 nM | CCCC[C@H]1C(=O)N(C)[C@@H](CCCC)C(=O)N[C@@H](CC(C)C)C(=O)N[C@H](C(=O)NCC(=O)N[C@@H](CC(=O)NCCCOCCOCCOCCCNC(=O)CC[C@H](NC(=O)CCCCCCCCCCCCCCCCC(=O)O)C(=O)O)C(=O)O)CSCC(=O)N[C@@H](Cc2ccc(O)cc2)C(=O)N(C)[C@@H](C)C(=O)N[C@@H](CC(N)=O)C(=O)N(C)CC(=O)N[C@@H](CN)C(=O)N[C@@H](CC(C)C)C(=O)N2C[C@H](O)C[C@@H]2C(=O)N[C@@H](Cc2c[nH]c3ccccc23)C(=O)N[C@@H](CCN)C(=O)N[C@@H](Cc2cn(CC(=O)OC)c3ccccc23)C(=O)N1C [Example 10] ({CH2CO}-Y[NMeA]N[Sar][Dap]L[d(cisHyp)]W[Dab][Trp(1-CH2CO2Me)][NMeNle][NMeNle]LCGD(X3)-OH; thioether N-14) |
| 0.3 to 1 nM | CCCC[C@H]1C(=O)N(C)[C@@H](CCCC)C(=O)N[C@@H](CC(C)C)C(=O)N[C@H](C(=O)NCC(=O)N[C@@H](Cc2cn(CCOCCOCCOCCOCCOCCOCCOCCOCCOCCOCCOCCNC(=O)CCC(NC(=O)CCCCCCCCCCCCCCCCC(=O)O)C(=O)O)nn2)C(=O)O)CSCC(=O)N[C@@H](Cc2ccc(O)cc2)C(=O)N(C)[C@@H](C)C(=O)N[C@@H](CC(N)=O)C(=O)N2CCC[C@H]2C(=O)N[C@@H](CN)C(=O)N[C@@H](CC(C)C)C(=O)N2C[C@H](O)C[C@H]2C(=O)N[C@@H](Cc2c[nH]c3ccccc23)C(=O)N[C@@H](CCN)C(=O)N[C@@H](Cc2cn(CC(=O)O)c3ccc(OC)cc23)C(=O)N1C (stereo partly shown) [Example 27] |
| 0.3 to 1 nM | CCCC[C@H]1C(=O)N(C)[C@@H](CCCC)C(=O)N[C@@H](CC(C)C)C(=O)N[C@H](C(=O)NCC(=O)N[C@@H](CC(=O)NCCCOCCOCCOCCCNC(=O)CC[C@H](NC(=O)CCCCCCCCCCCCCCCCC(=O)O)C(=O)O)C(=O)O)CSCC(=O)N[C@@H](Cc2ccc(O)cc2)C(=O)N(C)[C@@H](C)C(=O)N[C@@H](CC(N)=O)C(=O)N2CCC[C@H]2C(=O)N[C@@H](CN)C(=O)N[C@@H](CC(C)C)C(=O)N2C[C@H](O)C[C@H]2C(=O)N[C@@H](Cc2c[nH]c3ccccc23)C(=O)N[C@@H](CCN)C(=O)N[C@@H](Cc2cn(CC(=O)OC)c3ccccc23)C(=O)N1C [Example 9] ({CH2CO}-Y[NMeA]NP[Dap]L[Hyp]W[Dab][Trp(1-CH2CO2Me)][NMeNle][NMeNle]LCGD(X3)-OH; thioether N-14) |
